These results are taken from ChEMBL document CHEMBL2157869, “N'-substituted-2'-O,3'-N-carbonimidoyl bridged macrolides: novel anti-inflammatory macrolides without antimicrobial activity” (J Med Chem, 2012).

Series [1] relates to Mus musculus. The series is described as follows: Antiinflammatory activity in BALB/cJ mouse assessed as inhibition of LPS-induced GM-CSF production in lung homogenates at 200 mg/kg, ip administered 2 hrs prior to LPS challenge. Format: functional, organism-based. Set-up: dose 200 mg/kg.
The test system of series [2] is Mus musculus. The series is described as follows: Antiinflammatory activity in BALB/cJ mouse assessed as inhibition of LPS-induced CCL2 production in lung homogenates at 200 mg/kg, ip administered 2 hrs prior to LPS challenge. Set-up: dose 200 mg/kg. It counts as functional, organism-based.
Series [3] has as its system Mus musculus. The series is described as follows: Antiinflammatory activity in BALB/cJ mouse assessed as inhibition of LPS-induced IL-1beta production in lung homogenates at 200 mg/kg, ip administered 2 hrs prior to LPS challenge. It counts as functional, organism-based. Set-up: dose 200 mg/kg.
Series [4] can be described thus: Clearance in BALB/cJ mouse at 5 mg/kg, iv and 25 mg/kg, po. It counts as ADME, organism-based. The following applies: in vivo.
Series [5] in a line: Volume of distribution at steady state in BALB/cJ mouse at 5 mg/kg, iv and 25 mg/kg, po. The settings on record: in vivo, read-out: Vdss. Format: ADME, organism-based.
Series [6] can be described thus: Half life in BALB/cJ mouse at 5 mg/kg, iv and 25 mg/kg, po. Format: ADME, organism-based. The following applies: in vivo.
Series [7] is described as follows: Oral bioavailability in BALB/cJ mouse at 25 mg/kg. Format: ADME, organism-based. The settings on record: in vivo.
A short description of series [8]: Clearance in Sprague-Dawley rat at 2 mg/kg, iv and 10 mg/kg, po. The settings on record: in vivo. It counts as ADME, organism-based.
Series [9] is described as follows: Volume of distribution at steady state in Sprague-Dawley rat at 2 mg/kg, iv and 10 mg/kg, po. It counts as ADME, organism-based. The settings on record: in vivo, read-out: Vdss.
The nature of series [10]: Half life in Sprague-Dawley rat at 2 mg/kg, iv and 10 mg/kg, po. It counts as ADME, organism-based. The settings on record: in vivo.
A short description of series [11]: Oral bioavailability in Sprague-Dawley rat at 10 mg/kg. Format: ADME, organism-based. The settings on record: in vivo.
Series [12] has as its system Streptococcus pyogenes. As to the kind of experiment: Antibacterial activity against Streptococcus pyogenes ATCC 700294 by CLSI broth microdilution method. It counts as functional. (Dilution methods test growth across graded concentrations, often in twofold steps.)
A short description of series [13]: Antiinflammatory activity in mouse splenocytes assessed as inhibition of LPS-induced IL-6 production at 50 uM preincubated for 2 hrs prior to LPS challenge by sandwich ELISA. It counts as functional. The settings on record: Splenocyte. A general note: In an ELISA, binding on a coated surface is turned into a signal by an enzyme label.
The nature of series [14]: Cytotoxicity against human THP1 cells assessed as cell viability at 50 uM after 24 hrs by MTT assay. Format: cell-based, THP-1. The following applies: read-out: Activity.
The subject of series [15] is Mus musculus. As to the kind of experiment: Antiinflammatory activity in BALB/cJ mouse assessed as inhibition of LPS-induced TNFalpha level in lung homogenates at 200 mg/kg, ip administered 2 hrs prior to LPS challenge. It counts as functional, organism-based. Set-up: dose 200 mg/kg.
The test system of series [16] is Mus musculus. The series is described as follows: Antiinflammatory activity in BALB/cJ mouse assessed as inhibition of LPS-induced CXCL2 production in lung homogenates at 200 mg/kg, ip administered 2 hrs prior to LPS challenge. It counts as functional, organism-based. Set-up: dose 200 mg/kg.
In series [17] the test system is Mus musculus. The series is described as follows: Antiinflammatory activity in BALB/cJ mouse assessed as inhibition of LPS-induced CXCL1 production in lung homogenates at 200 mg/kg, ip administered 2 hrs prior to LPS challenge. Format: functional, organism-based. Set-up: dose 200 mg/kg.
Series [18] can be described thus: Antiinflammatory activity in mouse splenocytes assessed as inhibition of LPS-induced IL-6 production in mouse splenocytes at 25 uM preincubated for 2 hrs prior to LPS challenge by sandwich ELISA. Format: functional. The following applies: Splenocyte.
Series [19] can be described thus: Antiinflammatory activity in mouse splenocytes assessed as inhibition of LPS-induced IL-6 production at 12 uM preincubated for 2 hrs prior to LPS challenge by sandwich ELISA. The settings on record: Splenocyte. Format: functional.
Series [20] relates to Mus musculus. As to the kind of experiment: Antiinflammatory activity in ip dosed BALB/cJ mouse assessed as decrease in LPS-induced total cell number in bronchoalveolar lavage fluid administered 2 hrs prior to LPS challenge measured after 24 hrs post LPS challenge. Format: functional, organism-based. The settings on record: Lung.
For series [21], the system named is Mus musculus. As to the kind of experiment: Antiinflammatory activity in ip dosed BALB/cJ mouse assessed as decrease in LPS-induced neutrophil number in bronchoalveolar lavage fluid administered 2 hrs prior to LPS challenge measured after 24 hrs post LPS challenge. The following applies: Lung. Format: functional, organism-based.
Series [22] relates to Mus musculus. As to the kind of experiment: Antiinflammatory activity in BALB/cJ mouse assessed as inhibition of LPS-induced IL-6 production in lung homogenates at 200 mg/kg, ip administered 2 hrs prior to LPS challenge. It counts as functional, organism-based. Set-up: dose 200 mg/kg.
Series [23] deals with T1, Cytochrome P450 3A4 (Homo sapiens, UniProt P08684).
Description: Inhibition of human recombinant CYP3A4 using DEF as substrate preincubated for 5 to 10 mins before substrate addition
Series [24] concerns the target T1, Cytochrome P450 3A4. This is another data set of the same source.
Description: Inhibition of human recombinant CYP3A4 using 7-BQ as substrate preincubated for 5 to 10 mins before substrate addition
In series [25] the test system is Streptococcus pneumoniae. As to the kind of experiment: Antibacterial activity against Streptococcus pneumoniae ATCC 49619 by CLSI broth microdilution method. It counts as functional.
Series [26] concerns Staphylococcus aureus. As to the kind of experiment: Antibacterial activity against Staphylococcus aureus ATCC 13709 by CLSI broth microdilution method. It counts as functional.
Series [27] concerns Haemophilus influenzae. The series is described as follows: Antibacterial activity against Haemophilus influenzae ATCC 49247 by CLSI broth microdilution method. It counts as functional.
The subject of series [28] is Moraxella catarrhalis. As to the kind of experiment: Antibacterial activity against Moraxella catarrhalis ATCC 23246 by CLSI broth microdilution method. It counts as functional.
Series [29] deals with Mus musculus. As to the kind of experiment: Antiinflammatory activity in BALB/cJ mouse assessed as decrease in LPS-induced neutrophil number in bronchoalveolar lavage fluid at 200 mg/kg, ip administered 2 hrs prior to LPS challenge measured after 24 hrs post LPS challenge. It counts as functional, organism-based. Set-up: dose 200 mg/kg. The following applies: Lung.
Series [30] concerns Mus musculus. As to the kind of experiment: Antiinflammatory activity in BALB/cJ mouse assessed as decrease in LPS-induced total cell number in bronchoalveolar lavage fluid at 200 mg/kg, ip administered 2 hrs prior to LPS challenge measured after 24 hrs post LPS challenge. It counts as functional, organism-based. Set-up: dose 200 mg/kg. The following applies: Lung.
Series [31] concerns the target Transcription factor Jun (Mus musculus) (UniProt P05627). As to the kind of experiment: Inhibition of AP1-mediated mediated IL-1beta production in LPS-induced mouse pulmonary neutrophila model.
A short description of series [32]: Cmax in cystic fibrosis patient plasma at 500 mg. Format: ADME, organism-based. The following applies: human. Set-up: dose 500 mg.
A short description of series [33]: Cmax in cystic fibrosis patient blood at 500 mg. It counts as ADME, organism-based. Set-up: dose 500 mg. The settings on record: human, whole blood.
Series [34] is described as follows: Cmax in lung cancer patient serum at 2 gram, po qd. Format: ADME, organism-based. Set-up: route oral. The settings on record: human.
Series [35] in a line: Cmax in lung cancer patient epithelial lining fluid at 2 gram, po qd. Set-up: route oral. Format: ADME, organism-based. The settings on record: human.

Converted amounts (≈) assume the structure as drawn. The source made the active and inactive calls. The rule behind the calls is not given here.

T1 sequence (P08684 whole entry): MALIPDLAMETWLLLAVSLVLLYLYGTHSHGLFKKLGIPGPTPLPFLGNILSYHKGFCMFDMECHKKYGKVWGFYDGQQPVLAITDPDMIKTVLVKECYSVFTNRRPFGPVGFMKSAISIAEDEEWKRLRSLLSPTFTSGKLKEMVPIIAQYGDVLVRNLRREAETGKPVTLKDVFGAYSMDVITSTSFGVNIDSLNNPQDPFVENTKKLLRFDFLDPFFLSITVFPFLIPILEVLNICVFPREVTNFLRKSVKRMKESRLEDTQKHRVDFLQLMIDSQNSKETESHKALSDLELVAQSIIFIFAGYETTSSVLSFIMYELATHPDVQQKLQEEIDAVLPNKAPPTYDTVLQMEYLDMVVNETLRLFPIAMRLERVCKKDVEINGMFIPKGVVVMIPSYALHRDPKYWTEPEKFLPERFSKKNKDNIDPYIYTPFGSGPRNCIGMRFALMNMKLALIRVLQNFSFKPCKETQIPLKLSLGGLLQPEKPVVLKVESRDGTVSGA
Chain of Transcription factor Jun (Mus musculus) (P05627 whole entry): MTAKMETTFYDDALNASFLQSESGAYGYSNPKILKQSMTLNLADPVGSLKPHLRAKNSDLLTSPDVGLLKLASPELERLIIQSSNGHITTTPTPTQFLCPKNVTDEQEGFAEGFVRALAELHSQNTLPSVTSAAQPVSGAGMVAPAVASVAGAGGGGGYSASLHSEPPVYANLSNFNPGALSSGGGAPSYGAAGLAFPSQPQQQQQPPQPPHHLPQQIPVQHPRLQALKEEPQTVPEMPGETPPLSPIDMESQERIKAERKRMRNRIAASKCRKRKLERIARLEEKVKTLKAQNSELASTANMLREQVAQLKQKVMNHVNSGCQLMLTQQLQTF

Usually inhibition stands for the share of the control response that was lost under treatment. The term half-life denotes how long it takes for the measured level to halve. For orientation: bioavailability means dose-corrected exposure relative to a reference, in per cent. Usually IC50 stands for the concentration that gives 50% inhibition. A higher IC50 goes with lower potency. For `CC[C@H]1OC(=O)[C@H](C)[C@@H](O[C@H]2C[C@@](C)(OC)[C@@H](O)[C@H](C)O2)[C@H](C)[C@@H](O[C@@H]2O[C@H](C)C[C@H]3[C@H]2O/C(=N\C(C)C)N3C)[C@](C)(O)C[C@@H](C)CN(C)[C@H](C)[C@@H](O)[C@]1(C)O`, the inhibition result in [1], in [2], in [3], in series [15], in [16] and in series [17] was “Active” each time. For the same molecule, the inhibition entry in [22] was “Active”. Moreover, the clearance in series [4] is 19.8 mL/min/kg; in series [8] it was 12.3 mL/min/kg. Further, the Vd in [5] was found to be 23 L/kg; in series [9], 8.6 L/kg. Also, the values for the half-life in series [6] and in series [10] were 17.3 h and 20.3 h, respectively. Moreover, the results for the bioavailability in series [7] and in [11] were 62% and 33%, respectively. In [12], the MIC was > 64 µg/mL. The inhibition at 50 µM in [13] worked out at 95%. For the same molecule, the viability at 24 h, 50 µM in [14] was 9%. Further, the inhibition at 25 µM in series [18] amounted to 90%. The inhibition at 12 µM in [19] turned out to be 79%. Moreover, the Activity result in series [20] and in series [21] was “Dose-dependent effect” each time. Moreover, the values for the IC50 in [23] and in [24] were 7.8 µM and > 10 µM, respectively.

As for `CC/N=C1/O[C@H]2[C@H](O[C@@H]3[C@@H](C)[C@H](O[C@H]4C[C@@](C)(OC)[C@@H](O)[C@H](C)O4)[C@@H](C)C(=O)O[C@H](CC)[C@@]4(C)OC5(O[C@@]3(C)C[C@H]5C)[C@H](C)[C@@H]4C)O[C@H](C)C[C@@H]2N1C`, the result in series [25], in [12], in series [26], in series [27] and in series [28] was Active.

On to `CC/N=C1\O[C@H]2[C@H](O[C@@H]3[C@@H](C)[C@H](O[C@H]4C[C@@](C)(OC)[C@@H](O)[C@H](C)O4)[C@@H](C)C(=O)O[C@H](CC)[C@@](C)(O)[C@H](O)[C@@H](C)N(C)C[C@H](C)C[C@@]3(C)O)O[C@H](C)C[C@@H]2N1C`, for which the outcome in series [29] and in series [30] was Active. Further, the MIC in [12] is > 64 µg/mL. Besides, the inhibition at 50 µM in series [13] was 99%. In addition, in series [14], the viability at 24 h, 50 µM amounted to 0%. Also, in series [18], the inhibition at 25 µM was determined as 96%. Further, in series [19], the inhibition at 12 µM worked out at 86%. In addition, the IC50 in [23] is 7.9 µM; in series [24], > 10 µM.

Broadly, the Cmax is the peak of the concentration-time curve. With `CC[C@H]1OC(=O)[C@H](C)[C@@H](O[C@H]2C[C@@](C)(OC)[C@@H](O)[C@H](C)O2)[C@H](C)[C@@H](O[C@@H]2O[C@H](C)C[C@H](N(C)C)[C@H]2O)[C@](C)(O)C[C@@H](C)CN(C)[C@H](C)[C@@H](O)[C@]1(C)O` [AZITHROMYCIN], the inhibition result in series [31] is “Active”. For the same molecule, the Cmax was 670 ng/mL in [32], 2010 ng/mL in [33], 940 ng/mL in [34] and 3200 ng/mL in [35]. Also, the outcome in series [29] and in [30] was Active. In addition, the MIC was < 0.125 µg/mL in series [25]; < 0.125 µg/mL in [12]; 0.5 µg/mL (≈ 0.668 µM) in [26]; 2 µg/mL (≈ 2.67 µM) in [27]; < 0.125 µg/mL in [28]. Besides, in series [13], the inhibition at 50 µM was found to be 84%. Further, the viability at 24 h, 50 µM in series [14] was determined as 0%. Further, the inhibition at 25 µM in series [18] was determined as 74%. The inhibition at 12 µM in [19] was found to be 61%.
